Results on 4 molecules are retold here after paper PMC9192638, “Compact IF2 allows initiator tRNA accommodation into the P site and gates the ribosome to elongation” (Nature Communications, 2022).

Assay [1] deals with T1, IF2 (initiation factor 2) (Pseudomonas aeruginosa, UniProt Q9HV55).
T1 construct: gene infB; full-length; N-terminal 6xHis-SMT3 tag removed by Ulp1; expressed in E. coli BL21(DE3) Star; compact model residues 337-835
As to the kind of experiment: cryo-EM structure. It counts as binding. The following applies: pH 7.6, 10 mM MgCl2.

The target in assay [2] is T2, initiation factor 2 (IF2) from Pseudomonas aeruginosa (Pseudomonas aeruginosa PAO1, UniProt Q9HV55 1-840).
T2 construct: Translation initiation factor IF2, Pseudomonas aeruginosa PAO1; residues modelled in the maps: 248-332 (N2 sub-domain region, extended IF2) and 337-835 (compact IF2); Co-purifies with GDP; GDPCP was added to the complex, so the sample held IF2-GDP (compact) and IF2-GDPCP (extended); also called PaeIF2; IF2-GDP; source: E. coli BL21 (DE3) Star, purified (HisTrap, Ulp1 cleavage, reverse HisTrap, …)
Description: cryo-EM structure; rotated 70S-IC with extended IF2-GDPCP (structures II-A and II-B); 2 uM 70 S ribosome, 25 uM mRNA, 10 uM fMet-tRNA, 30 uM IF2, 2 mM GDPCP; 10 mM Hepes 7.6, 60 mM NH4Cl, 15 mM KCl, 10 mM MgCl2. The following applies: both partners purified.

T2 sequence (Q9HV55 whole entry): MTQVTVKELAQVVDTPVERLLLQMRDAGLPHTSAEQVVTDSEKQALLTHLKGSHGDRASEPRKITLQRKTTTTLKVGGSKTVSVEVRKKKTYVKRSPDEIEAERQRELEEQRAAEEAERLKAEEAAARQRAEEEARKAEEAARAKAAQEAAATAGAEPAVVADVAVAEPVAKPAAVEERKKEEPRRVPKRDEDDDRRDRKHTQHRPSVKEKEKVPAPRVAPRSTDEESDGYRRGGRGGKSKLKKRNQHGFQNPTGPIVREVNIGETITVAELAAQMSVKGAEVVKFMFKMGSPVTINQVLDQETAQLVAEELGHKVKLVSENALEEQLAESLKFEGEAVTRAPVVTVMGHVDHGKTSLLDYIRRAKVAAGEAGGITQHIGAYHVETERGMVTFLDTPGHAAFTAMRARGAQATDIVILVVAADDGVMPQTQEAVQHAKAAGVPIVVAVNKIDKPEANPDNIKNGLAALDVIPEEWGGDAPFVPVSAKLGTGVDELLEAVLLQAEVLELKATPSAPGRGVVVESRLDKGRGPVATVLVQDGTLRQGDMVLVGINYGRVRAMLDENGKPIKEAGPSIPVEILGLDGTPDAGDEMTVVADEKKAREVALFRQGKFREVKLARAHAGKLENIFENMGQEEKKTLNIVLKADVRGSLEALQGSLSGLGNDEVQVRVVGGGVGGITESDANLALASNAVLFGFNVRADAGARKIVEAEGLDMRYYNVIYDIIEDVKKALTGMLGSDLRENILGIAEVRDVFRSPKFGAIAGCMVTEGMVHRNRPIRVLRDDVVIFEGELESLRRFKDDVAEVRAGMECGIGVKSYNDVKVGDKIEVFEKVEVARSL
T1 sequence (Q9HV55 whole entry, the tested form may be a part): as the sequence (Q9HV55 whole entry) above

In the case of `Nc1nc2c(ncn2[C@@H]2O[C@H](COP(=O)(O)OP(=O)(O)CP(=O)(O)O)[C@@H](O)[C@H]2O)c(=O)[nH]1` [GDPCP, β,γ-methyleneguanosine 5’-triphosphate], the cryo-EM structure entry in assay [1] (extended IF2 on rotated 70S ribosome initiation complex with mRNA and fMet-tRNA, 2 mM GDPCP added, G-domain nucleotide site with Mg2+) is “well-defined density for extended IF2 and GDPCP in the G-domain”.

As for `Nc1nc2c(ncn2[C@@H]2O[C@H](COP(=O)(O)OP(=O)(O)O)[C@@H](O)[C@H]2O)c(=O)[nH]1` [GDP], the cryo-EM structure result in assay [1] (compact IF2 on non-rotated 70S ribosome initiation complex with mRNA and fMet-tRNA, GDP co-purified with IF2, G-domain nucleotide site) is given as “visualizes the GDP nucleotide bound in the G-domain”.

B1: ribosomal protein uL11 (natural protein, UniProt Q9HWC5 1-143, looked up)
chain: MAKKIQAYIKLQVKAGQANPSPPVGPALGQHGVNIMEFCKAFNAKTQGQEPGLPTPVIITVYSDRSFTFETKSTPAAVLLKKAAGITSGSARPNSQKVGTVTRAQLEEIAKTKQADLTAADLDAAVRTIAGSARSMGLNVEGV
notes: 50 S ribosomal protein uL11, Pseudomonas aeruginosa PAO1, as part of the 70 S ribosome; Stood in the assay as a subunit of the whole 70 S ribosome with mRNA and fMet-tRNA; also called uL11-NTD; source: endogenous, in 70 S ribosomes purified from P. aeruginosa PAO1 (sucrose cushion, sucrose density gradients)
On to B1, for which, in assay [2], the binding result was “binds”.

B2: ribosomal protein uL16 (natural protein, UniProt Q9HWE2 1-137, looked up)
chain: MLQPKRTKFRKQMTGHNRGLAHRGSKVSFGEYALKATSRGRLTARQIESARRALTRHVKRGGKIWIRVFPDKPVTKKPLEVRMGKGKGGVEYWVAQIQPGKVLYEIEGVSEELAREAFALAAAKLPLATSFVKRTVM
notes: 50 S ribosomal protein uL16, Pseudomonas aeruginosa PAO1, as part of the 70 S ribosome; Stood in the assay as a subunit of the whole 70 S ribosome with mRNA and fMet-tRNA; source: endogenous, in 70 S ribosomes purified from P. aeruginosa PAO1 (sucrose cushion, sucrose density gradients)
For the molecule B2, the binding result in assay [2] was “binds”.
